According to US10668135B2, “Methods of treating or preventing periodontitis and diseases associated with periodontitis” (The Trustees of the University of Pennsylvania, priority 2012, dated 2020):
“Also recorded” adds a separate entry of the source.

Experiments:
[1] = tested on: ligature-induced periodontitis; experiment: Initial NHP study: ligature-induced periodontitis, maxillary posterior teeth, split-mouth, 6 weeks, two animals; type: in vivo, cynomolgus monkey; conditions: for clinical inflammation (inflammatory clinical parameters: probing pocket depth, gingival index, bleeding on probing, mobility index): Cp40 500 μg injected locally into maxillary interdental papillae, from day 3, vs inactive analog on contralateral side, 6 weeks, FIG. 4; for levels of proinflammatory cytokines in the gingival crevicular fluid (GCF): FIG. 5; for numbers of osteoclasts (TRAP-positive multinucleated cells) in bone biopsy specimens / osteoclastogenesis: FIG. 5G
Description: FIG. 4A, FIG. 4B, FIG. 4C, and FIG. 4D show results for probing pocket depth, gingival index, bleeding on probing, and mobility index, respectively, which are measurements typically used to detect clinical periodontal inflammation and bone lose. FIG. 4E represents a radiograph measurement of bone height. Starting 3 days after initiation of ligature-induced periodontitis, Cp40 (500 μg) was injected locally into the maxillary interdental papillae from the 1st premolar to the 2nd molar, in two animals, three times weekly. […] Shown are the effects of Cp40 on the indicated inflammatory clinical parameters and bone heights, determined using standardized X-ray images (taken at week 6) and NIKON imaging system software. Specifically, the distance between the cement-enamel junction (CEJ) and alveolar bone crest (ABC) was measured at six points (1st premolar, distal; 2nd premolar mesial & distal; 1st molar, mesial & distal; 2nd molar mesial) and the data in Panel E reflect the 6-site total. The higher CEJ-ABC distance values of the controls as compared to those of Cp40 treatments signify increased bone loss in the absence of drug treatment. In all animals, the gingival margin was at the cement-enamel junction, and thus, PPD readings equaled clinical attachment loss (CAL).
Specifically, the panels show the relative protein levels for TNF (FIG. 5A), IL-1b (FIG. 5B), IL-6 (FIG. 5C), IL-17A (FIG. 5D), receptor activator of nuclear factor kappa-B ligand (RANKL; FIG. 5E), and osteoprotegerin (OPG; FIG. 5F). At the same timepoints that clinical exams were performed (as per FIGS. 4A-4E), GCF was collected from the same monkeys (treatment details in FIGS. 4A-4E legend) using PERIOPAPER absorbent strips to assay the indicated cytokines. Total cytokine content in the eluted GCF samples was measured using MILLIPLEX MAP (multi-analyte panels) kits on a BIO-PLEX detection system. In FIG. 5G, TRAP-positive multinucleated cells (osteoclasts) were enumerated in nine serial sections for each bone biopsy specimen taken between the 2nd premolar and 1st molar of each animal.
The cynomolgus monkey model is therefore considerably more predictive of drug efficacy in human periodontitis as compared to other, widely used preclinical animal models such as rodents. Moreover, the cynomolgus model of ligature-induced periodontitis allows longitudinal examination of the disease in a way that cannot be performed in humans.
Thus, each animal served as its own control. An initial study with a 6-week duration was conducted using two animals.

[2] = tested on: ligature-induced periodontitis; experiment: Second NHP study: ligature-induced periodontitis, mandibular posterior teeth, split-mouth, four monkeys; type: in vivo, cynomolgus monkey; conditions: n=4 monkeys
Description: FIG. 6A, FIG. 6B, FIG. 6C, and FIG. 6D show measurements for probing pocket depth, gingival index, bleeding on probing, and mobility index, respectively, between Cp40 treated and control animals. Starting 3 days after initiation of ligature-induced periodontitis, Cp40 (500 μg) or control were injected locally into the mandibular interdental papillae from the 1st premolar to the 2nd molar, three times weekly, in opposites sides of the mouth (split-mouth design). The effects of Cp40 were determined on the indicated inflammatory clinical parameters at the indicated timepoints. In all animals, the gingival margin was at the cement-enamel junction, and thus, PPD readings equaled clinical attachment loss (CAL). Data are means±SD (n=4 monkeys). *, P<0.05; **, P<0.01 vs. control.
Specifically, levels of TNF-α (FIG. 7A), IL-1β (FIG. 7B), IL-6 (FIG. 7C), interleukin 8 (IL-8; FIG. 7D), IL-17A (FIG. 7E), interleukin 18 (IL-18; FIG. 7F), granulocyte colony-stimulating factor (G-CSF; FIG. 7G), RANKL (FIG. 7H), and OPG (FIG. 7I) were measured. At the same timepoints that clinical exams were performed (as per FIGS. 6A-6D), GCF was collected from the same monkeys (treatment details in FIGS. 6A-6D legend) using PERIOPAPER absorbent strips to assay the indicated cytokines. Total cytokine content in the eluted GCF samples was measured using MILLIPLEX MAP (multi-analyte panels) kits on a BIO-PLEX detection system. Data are means±SD (n=4 monkeys). *, P<0.05; **, P<0.01 vs. control.
FIGS. 8A-8C are graphs showing inhibition of periodontal bone loss following treatment of NHP periodontitis with Cp40. Four monkeys were treated as described in the legend to FIGS. 6A-6D, and their mandibular bone heights (CEJ-ABC distance) were measured using standardized X-ray images (taken at baseline and at week 6) and NIKON imaging system software. Measurements were made at six points (1st premolar, distal; 2nd premolar mesial & distal; 1st molar, mesial & distal; 2nd molar mesial) and the data in FIG. 8A and FIG. 8B reflect, respectively, the 6-site total at baseline (FIG. 8A) and at week 6 (FIG. 8B). For each control or Cp40 treatment, bone loss was calculated as bone height at baseline minus bone height at 6 weeks (FIG. 8C). The difference between Cp40 and control was significant (P<0.05; paired t test).
In a second NHP study, ligature-induced periodontitis was induced by placing ligatures around the mandibular posterior teeth (i.e., in the lower jaw) of the same two animals plus in two additional animals (total of four monkeys). The results obtained (FIGS. 6, 7, and 8) confirmed the results of the original study. Moreover, the presence of four animals allowed the possibility for statistical analysis.

[3] = Cp40 500 μg local, three times weekly, vs inactive analog control

Compound	clinical inflammation (inflammatory clinical parameters: probing pocket depth, gingival index, bleeding on probing, mobility index) ([1]; three times weekly)	levels of proinflammatory cytokines in the gingival crevicular fluid (GCF) [1, 3]	numbers of osteoclasts (TRAP-positive multinucleated cells) in bone biopsy specimens / osteoclastogenesis [1, 3]	bone loss (radiographic bone height, CEJ-ABC distance, 6-site total) ([1]; Cp40 500 μg local, three times weekly, X-ray at week 6, vs inactive analog control, FIG. 4E)	GCF levels of RANKL ([1]; Cp40 500 μg local, three times weekly, vs inactive analog control, FIG. 5E)	GCF levels of osteoprotegerin (OPG) ([1]; Cp40-treated sites vs control sites during the course of the study, FIG. 5F)	probing pocket depth (PPD), protective effect ([2]; Cp40 500 μg injected locally into mandibular interdental papillae, three times weekly, vs control, FIG. 6A)	inflammatory clinical parameters (overall) ([2]; Cp40 500 μg local mandibular, three times weekly, vs control, FIG. 6)	gingival index (GI), protective effect ([2]; Cp40 500 μg local mandibular, three times weekly, vs control, FIG. 6B)	GCF levels of proinflammatory cytokines (cytokine responses) ([2]; Cp40 500 μg local mandibular, three times weekly, vs control, FIG. 7)	periodontal bone loss (bone height at baseline minus bone height at 6 weeks, CEJ-ABC distance) ([2]; Cp40 500 μg local mandibular, three times weekly, vs control, P<0.05 paired t test, FIG. 8C)	GCF RANKL levels ([2]; Cp40 vs. control treatment, FIG. 7H)	GCF OPG levels ([2]; Cp40 vs. control treatment, FIG. 7I)
CC[C@H](C)[C@H](N)C(=O)N[C@H]1CSSC[C@@H](C(=O)N[C@H](C(N)=O)[C@@H](C)O)NC(=O)[C@H](CCCN=C(N)N)NC(=O)[C@H](Cc2cnc[nH]2)NC(=O)[C@H](Cc2cnc[nH]2)NC(=O)CNC(=O)[C@H](Cc2c[nH]c3ccccc23)NC(=O)[C@H](CC(=O)O)NC(=O)[C@H](CCC(N)=O)NC(=O)[C@H](C(C)C)NC(=O)[C@H](C(C)C)NC1=O [Compstatin, Ile-Cys*-Val-Val-Gln-Asp-Trp-Gly-His-His-Arg-Cys*-Thr]	decreased clinical inflammation	reduced levels of proinflammatory cytokines	lower numbers of osteoclasts										
dTyr-Ile-Cys*-Val-Trp(1Me)-Gln-Asp-Trp-Sar-Ala-His-Arg-Cys*-mIle-NH2 (YICVWQDWGAHRCI; D-Tyr, Trp(1Me), Sar, mIle, disulfide cyclisation, C-terminal amide; compstatin analog (Cp40); MOD_RES (1)..(1) D-Tyrosine; DISULFID (3)..(13) Cysteines joined via disulfide bridge.; MOD_RES (5)..(5) 1-methyl-tryptophan; MOD_RES (9)..(9) …ON, MeGly; MOD_RES (14)..(14) …ON; MOD_RES (14)..(14) AMIDATION)	decreases inflammatory clinical parameters	inhibits proinflammatory cytokine production	decreased osteoclastogenesis	decreased bone loss	decreased GCF levels of RANKL	maintained at higher levels	reached statistical significance	significant inhibition of inflammatory clinical parameters	reached statistical significance	decreased GCF levels of proinflammatory cytokines; also recorded: reached statistical significance	significant inhibition of bone loss	decreased RANKL	increased OPG levels
